The values that follow come from patent US20120294803A1, “CXCR4 ANTAGONISTS FOR IMAGING OF CANCER AND INFLAMMATORY DISORDERS” (EMORY UNIVERSITY, priority 2010, published 2012).

One series has as its target CXCR4 (Homo sapiens, UniProt P61073). The series is described as follows: Competition binding assay, metastatic 686LN cells with [18F]M508F and increasing nonradioactive [19F]M508F. On the procedure: To determine whether [^18F]M508F specifically and quantitatively would bind to CXCR4 on the cell surface, we tested this using the metastatic 686LN subclones that are CXCR4-positive in vitro. […] Similarly, a competition assay was used to determine the binding affinity of [^18F]M508F to CXCR4. Metastatic 686LN cells, incubated with a constant amount of [^18F]-M508F and increasing concentrations of nonradioactive [^19F]-M508F for 1 h at ambient temperature, were used in the competition binding assay.

Series [1] in a line: Tissue biodistribution by tissue harvesting and gamma counter in normal mice. The class given is in vivo, C57Black mice. To be noted: 15, 30, 60, 120 min post-injection. On the procedure: To determine the tissue biodistribution of [^18F]M508F using a gamma counter in regular C57Black mice, we harvested animal organs, including blood, at 15 min, 30 min, 60 min, and 120 min post-injection and measured the uptake of radioactivity in various organs [radioactivity (% injected dose)/g] with n=5 per group.
Results are shown in FIG. 2 as average vales +/−SE.

The subject of series [2] is CXCR4-positive orthothopic SCCHN tumors. The series can be described thus: MicroPET imaging in orthotopic SCCHN animal model. The class given is in vivo, mouse. To be noted: 30 mins post-injection. On the procedure:
In vivo biodistribution and tumor uptake studies were performed to determine whether [^18F]M508F can be used to image CXCR4-positive tumors in vivo.

In a further series the test system is CXCR4-positive paw edema. The series is described as follows: MicroPET/CT imaging in edema animal model. To be noted: 30 mins post-injection. Format: in vivo, mice. On the procedure: In vivo biodistribution studies were performed to determine whether [^18F]M508F can be used to image CXCR4-positive inflammation in vivo.
For series [3], the system named is CXCR4-positive lung metastases. The series can be described thus: MicroPET/CT imaging in lung metastasis of SCCHN animal model. Format: in vivo, mouse. To be noted: 60 mins post-injection. Here is the method:
MicroPET/CT scan images of the lungs were performed to determine whether [^18F]M508F can be used to image CXCR4-positive lung metastases in vivo. These images were obtained 60 minutes post-injection of [^18F]M508F.

The test system of series [4] is CXCR4-positive immune cells. The series can be described thus: MicroPET/CT imaging of lung inflammation induced by strong-dose radiation. Format: in vivo, mouse. To be noted: 20 Gy irradiation, 60 mins post-injection. On the procedure:
MicroPET/CT scan images of the lungs were performed to determine whether [^18F]M508F can be used to image lung inflammation induced by the strong-dose radiation therapy in vivo. These images were obtained 60 minutes post-injection of [^18F]M508F.
These images were obtained 60 minutes post-injection of [^18F]M508F.

CXCR4, sequence (P61073 whole entry, species assumed): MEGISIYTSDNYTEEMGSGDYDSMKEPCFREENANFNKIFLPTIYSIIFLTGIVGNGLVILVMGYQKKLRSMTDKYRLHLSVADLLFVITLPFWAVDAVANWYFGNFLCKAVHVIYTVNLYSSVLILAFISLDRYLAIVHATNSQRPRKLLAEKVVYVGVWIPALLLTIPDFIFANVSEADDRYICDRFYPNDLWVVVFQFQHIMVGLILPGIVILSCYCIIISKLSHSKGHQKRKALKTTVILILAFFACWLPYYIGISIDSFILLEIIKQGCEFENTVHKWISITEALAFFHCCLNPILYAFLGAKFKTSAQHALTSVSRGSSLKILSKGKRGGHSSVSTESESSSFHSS

Take `Fc1cnc([18F])nc1NCc1ccc(CNc2ccnc(NCCN3CCOCC3)n2)cc1` [[^18F]M508F, N4-(4((2-^18-fluoro,5-fluoropyrimidin-4-ylamino)methyl)benzyl)-N2-(2-morpholinoethyl)pyrimidine-2,4-diamine]: on CXCR4 (1.85 μM compared with […]), the “binding affinity better than 64Cu-AMD3100” value is “over 50 times”. On CXCR4 (metastatic 686LN cells, 1 h at ambient temperature, competition with nonradioactive [19F]-M508F, read-out: binding affinity for CXCR4), the Kd amounted to 1850 nM. Besides, in series [1], the “accumulation in the liver” value was “anomalous specific accumulation in the liver”; the “blood and muscle clearance” value is “fast blood and muscle clearance”; the clearance pathway entry was “renal clearance pathway”. In addition, the “tumor uptake of tracer (PET)” value in series [2] is listed as “significant uptake”. Moreover, the “crossing of the blood-brain-barrier” value in series [2] (PET sagittal image) was “does not cross the blood-brain-barrier”. Besides, in the series on CXCR4-positive paw edema, the “uptake of tracer in paw edema (PET)” value is listed as “significant uptake”. In addition, the “uptake of tracer by metastatic SCCHN tumors in lung (PET/CT)” value in series [3] is reported as “significant uptake”. In series [4], the “uptake of tracer by CXCR4-positive immune cells in lung inflammation (PET/CT)” value is listed as “significant uptake”.
